Data published in patent US8338472B2, “Hexahydrocyclopentyl[F]indazole carboxamides and derivatives thereof as selective glucocorticoid receptor modulators” (Merck Sharp & Dohme Corp., priority 2008, dated 2012).
Read-outs that look alike come from different tables or passages of the source.

Tests used:
[1] = molecular target: T1, Glucocorticoid Receptor (Homo sapiens, UniProt P04150); assay: Trans-Activation Modulation of Glucocorticoid Receptor (GRAMMER), MMTV-LUC reporter gene in A549 cells; assay type: cell-based; settings: Table 1; for Transactivation A549 Cells GRAMMER Emax / Emax: Emax relative to 300 nM dexamethasone; for EC50: inflection point, read-out: Transactivation A549 Cells GRAMMER IP; for Transactivation A549 Cells GRAMMER Emax / EC50: A549 cells; for Emax: A549, A549 cells, read-out: Transactivation A549 Cells GRAMMER Emax
T1 construct: These cells express large amount of the GR and are very responsive to GC treatment; endogenous in cells; host or cells: A549 cells transiently transfected with the MMTV-LUC reporter
T1 sequence (P04150 1-777): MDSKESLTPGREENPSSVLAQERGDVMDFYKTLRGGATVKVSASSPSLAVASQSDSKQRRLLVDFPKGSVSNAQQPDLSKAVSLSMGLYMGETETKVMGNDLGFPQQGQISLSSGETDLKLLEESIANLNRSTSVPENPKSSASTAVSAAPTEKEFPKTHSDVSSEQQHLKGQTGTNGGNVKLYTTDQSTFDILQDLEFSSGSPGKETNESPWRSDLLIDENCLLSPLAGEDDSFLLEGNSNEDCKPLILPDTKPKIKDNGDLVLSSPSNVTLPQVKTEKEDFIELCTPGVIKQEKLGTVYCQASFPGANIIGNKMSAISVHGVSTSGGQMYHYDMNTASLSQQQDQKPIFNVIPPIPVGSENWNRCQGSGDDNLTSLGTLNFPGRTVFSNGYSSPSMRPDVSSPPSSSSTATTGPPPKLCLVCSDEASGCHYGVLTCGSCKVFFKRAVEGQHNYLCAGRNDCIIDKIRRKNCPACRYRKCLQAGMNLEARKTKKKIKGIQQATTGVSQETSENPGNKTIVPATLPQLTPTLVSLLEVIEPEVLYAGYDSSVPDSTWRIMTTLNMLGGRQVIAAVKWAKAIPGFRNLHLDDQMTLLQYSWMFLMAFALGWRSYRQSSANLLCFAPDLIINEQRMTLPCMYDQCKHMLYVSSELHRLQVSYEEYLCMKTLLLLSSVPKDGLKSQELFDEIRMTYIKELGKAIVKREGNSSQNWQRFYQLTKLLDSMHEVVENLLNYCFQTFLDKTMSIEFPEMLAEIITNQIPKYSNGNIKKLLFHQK
Outline: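 Luciferase from a transiently transfected MMTV-LUC reporter was measured after 24 h compound exposure (≤1% DMSO) in A549 or MDA-MB-453 cells. For antagonism, the decrease of 10 nM dexamethasone-induced signal was calculated. For agonism, Emax was referenced to 300 nM dexamethasone.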

[2] = molecular target: T2, human GR (Homo sapiens, UniProt P04150); assay: Transrepression Assay (GITAR), TNFα-β-lactamase reporter gene in U937 cells; assay type: cell-based; settings: for GITAR Greater than by GRAMMER % SEP: GITAR Emax minus GRAMMER Emax; for EC50: inflection point, read-out: Transrepression U937 Cells GITAR IP; for Transrepression U937 Cells GITAR Emax / EC50: U937 cells
T2 construct: U937 cells contain an endogenous glucocorticoid receptor (GR); endogenous in cells; host or cells: U937 cells stably transfected with the TNF-alpha promoter/beta-lactamase reporter
T2 sequence (P04150 1-777): T1 sequence (P04150 1-777)
Outline: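 Repression of PMA (5 ng/ml final)/LPS (100 ng/ml final)-induced TNF-α promoter activity, read as β-lactamase cleavage of CCF2-AM, in stably transfected U937 cells expressing native GR. Compound added 30-45 min before stimulation, overnight (~18 hr) 37° C; normalized to 100 nM dexamethasone (100%).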

[3] = molecular target: T3, glucocorticoid receptor (GR) (Homo sapiens, UniProt P04150); assay: Ligand binding assay (GR BIND), 3H-dexamethasone displacement in MDA-MB-453 cell lysate; settings: GR BIND Ki, Table 1
T3 sequence (P04150 1-777): T1 sequence (P04150 1-777)

[4] = activity repressed by 100 nM dexamethasone = 100%, Table 1
[5] = U-937, U937 cells, activity repressed by 100 nM dexamethasone = 100%, Table 1, read-out: Transrepression U937 Cells GITAR Emax
[6] = U-937, text statement, 100 nM dexamethasone = 100%, read-out: maximal activity in the transrepression assay (GITAR)

CCN(CC(O)C(F)(F)F)C(=O)[C@H]1CCC2=Cc3c(cnn3-c3ccc(F)cc3)C[C@@]21C (stereo partly drawn) [Compound 72, (4αR,5S)-N-ethyl-1-(4-fluorophenyl)-4α-methyl-N-(3,3,3-trifluoro-2-hydroxypropyl)-1,4,4α,5,6,7-hexahydrocyclopenta[f]indazole-5-carboxamide]
Transactivation A549 Cells GRAMMER Emax [1]: 71.2%
EC50 [1]: 37 nM
GITAR Greater than by GRAMMER % SEP ([2]; Table 1): 19.6%
Transrepression U937 Cells GITAR Emax [2, 4]: 90.8%
EC50 ([2]; Table 1): 43.9 nM
Ki [3]: 2.3 nM

COc1cccc(CN(C)C(=O)[C@H]2CCC3=Cc4c(cnn4-c4ccc(F)cc4)C[C@@]32C)c1 [Compound 47, (4αR,5S)-1-(4-fluorophenyl)-N-(3-methoxybenzyl)-N,4α-dimethyl-1,4,4α,5,6,7-hexahydrocyclopenta[f]indazole-5-carboxamide]
Emax [1]: 7.4%
EC50 [1]: 2020 nM
GITAR Greater than by GRAMMER % SEP ([2]; Table 1): 20.4%
Emax [2, 5]: 27.8%
Emax [2, 6]: > 5%
EC50 ([2]; Table 1): 1690 nM
Ki [3]: 7.1 nM

CCCCN(CCO)C(=O)[C@H]1CCC2=Cc3c(cnn3-c3ccc(F)cc3)C[C@@]21C [Compound 26, (4αR,5S)-N-butyl-1-(4-fluorophenyl)-N-(2-hydroxyethyl)-4α-methyl-1,4,4α,5,6,7-hexahydrocyclopenta[f]indazole-5-carboxamide]
Emax [1]: 39.3%
EC50 [1]: 812 nM
GITAR Greater than by GRAMMER % SEP ([2]; Table 1): 44.1%
Emax [2, 5]: 83.4%
Emax [2, 6]: > 5%
EC50 ([2]; Table 1): 809 nM
Ki [3]: 16.4 nM

CN(CC(O)C(F)(F)F)C(=O)[C@H]1CCC2=Cc3c(cnn3-c3ccccc3)C[C@@]21C (stereo partly drawn) [Compound 75, (4αR,5S)-N,4α-dimethyl-1-phenyl-N-(3,3,3-trifluoro-2-hydroxypropyl)-1,4,4α,5 ,6,7-hexahydrocyclopenta[f]indazole-5-carboxamide]
Transactivation A549 Cells GRAMMER Emax [1]: 65.2%
EC50 [1]: 164 nM
GITAR Greater than by GRAMMER % SEP ([2]; Table 1): 18.9%
Transrepression U937 Cells GITAR Emax [2, 4]: 84.0%
EC50 ([2]; Table 1): 181 nM
Ki [3]: 7.6 nM
